Assays:
Assay type in all cases: biochemical
recombinant rat PAI-1 = molecular target: T1, recombinant rat PAI-1 (Rattus norvegicus, UniProt P20961); assay: Test Example 3: rat PAI-1 inhibitory activity (as Test Example 2 with rat PAI-1); conditions: for IC50: rat PAI-1, calculated from the inhibition rates
T1 construct: purchased Molecular Innovations, Inc
T1 sequence (P20961 24-402): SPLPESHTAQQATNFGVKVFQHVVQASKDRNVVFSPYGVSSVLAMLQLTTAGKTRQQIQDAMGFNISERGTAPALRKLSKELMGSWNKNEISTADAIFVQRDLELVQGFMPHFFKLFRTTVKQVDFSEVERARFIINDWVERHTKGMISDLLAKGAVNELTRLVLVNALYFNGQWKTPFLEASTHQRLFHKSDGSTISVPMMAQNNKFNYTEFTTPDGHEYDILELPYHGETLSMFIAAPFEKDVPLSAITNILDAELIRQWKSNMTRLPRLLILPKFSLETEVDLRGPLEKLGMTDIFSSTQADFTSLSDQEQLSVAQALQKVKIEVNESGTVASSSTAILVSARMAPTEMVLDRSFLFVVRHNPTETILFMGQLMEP
Description: To this solution, 6 μl of 80 nM recombinant human PAI-1 (Molecular Innovations, Inc.) solution prepared with Tris buffer was added, and the plate was incubated for 5 minutes at room temperature. Furthermore, 30 μl of 800 IU/ml two-chain tPA (Activity Standard; American diagnostica, inc.) prepared with Tris buffer was added, and the mixed solution was incubated for 15 minutes at room temperature. Then, 30 μl of 400 μM fluorogenic substrate (Pyr-Gly-Arg-MCA; Peptide Institute, Inc.) for tPA prepared with Tris buffer was added and reacted for 30 minutes at room temperature.

recombinant human PAI-1 [1] = molecular target: T2, recombinant human PAI-1 (Homo sapiens, UniProt P05121); assay: Test Example 2: human PAI-1 inhibitory activity (tPA fluorogenic substrate, pH 7.4 HEPES buffer); conditions: for IC50: human PAI-1, calculated from the inhibition rates; for inhibition at 3 µM: read-out: Inhibition Rate of PAI-1 Activity (%)
T2 construct: purchased Molecular Innovations, Inc
Description: 0.1 M HEPES, 0.1 M NaCl. 1 mM EDTA. 0.1% Polyethylene glycol 8,000 (Hampton Research Corporation),
2 mM Dimethyldecylphoshine oxide [Apo-10] (Fluka Corporation)

recombinant human PAI-1 [2] = molecular target: T2, recombinant human PAI-1; assay: Test Example 1: human PAI-1 inhibitory activity (tPA fluorogenic substrate, pH 7.5 Tris buffer); conditions: Tris buffer
Description: 50 mM Tris, 150 mM NaCl, 10 μg/ml BSA, 0.01% Tween80 (SIGMA-ALDRICH Corporation)

T2 sequence (P05121 24-402): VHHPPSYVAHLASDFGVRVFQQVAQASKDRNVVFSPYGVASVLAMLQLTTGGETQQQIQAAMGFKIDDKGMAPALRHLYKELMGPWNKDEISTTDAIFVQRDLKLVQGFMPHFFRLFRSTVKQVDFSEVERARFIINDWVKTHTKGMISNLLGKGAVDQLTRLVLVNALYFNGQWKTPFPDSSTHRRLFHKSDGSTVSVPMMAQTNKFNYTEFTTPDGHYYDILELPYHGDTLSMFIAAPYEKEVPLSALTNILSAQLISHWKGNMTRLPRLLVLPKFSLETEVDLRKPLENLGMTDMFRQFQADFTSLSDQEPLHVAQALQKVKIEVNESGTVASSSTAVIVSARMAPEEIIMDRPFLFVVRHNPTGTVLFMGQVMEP

| Compound | Inhibition Rate of PAI-1 Activity (%) (recombinant human PAI-1 [2]; Compound Concentration 5 μM) | Inhibition Rate of PAI-1 Activity (%) (recombinant human PAI-1 [2]; Compound Concentration 10 μM) | Inhibition Rate of PAI-1 Activity (%) (recombinant human PAI-1 [2]; Compound Concentration 25 μM) | further results |
| --- | --- | --- | --- | --- |
| CC(C)(C)c1ccc(Oc2cc(-c3ccc(OC(F)(F)F)cc3)ccc2CCC(=O)O)cc1 [Compound 80] | – | – | – | IC50 (recombinant rat PAI-1): 2.2 µM; IC50 (recombinant human PAI-1 [1]): 1.06 µM |
| CC(C)(C)c1ccc(COc2cccc(Oc3ccc(OC(F)(F)F)cc3)c2CCC(=O)O)cc1 [Compound 86] | – | – | – | IC50 (recombinant rat PAI-1): 5.21 µM; IC50 (recombinant human PAI-1 [1]): 1.54 µM |
| CC(C)(C)c1ccc(C(c2ccccc2)N(C(=O)C(=O)O)c2ccc(-c3ccc(OC(F)(F)F)cc3)cc2)cc1 (centres unmarked) [Compound 222] | – | – | – | IC50 (recombinant rat PAI-1): 1.34 µM; IC50 (recombinant human PAI-1 [1]): 1.06 µM; inhibition at 3 µM (recombinant human PAI-1 [1]): > 99% |
| CC(C)(C)c1ccc(Oc2cccc(-c3ccc(OC(F)(F)F)cc3)c2OCC(=O)O)cc1 [Compound 113] | – | – | – | IC50 (recombinant rat PAI-1): 3.68 µM; IC50 (recombinant human PAI-1 [1]): 1.75 µM |
| CC(C)(C)c1ccc(COc2c(OCC(=O)O)cccc2-c2ccc(OC(F)(F)F)cc2)cc1 [Compound 117] | – | – | – | IC50 (recombinant rat PAI-1): 2.48 µM; IC50 (recombinant human PAI-1 [1]): 1.04 µM; inhibition at 3 µM (recombinant human PAI-1 [1]): > 99% |
| CC(C)(Oc1cccc(-c2ccc(OC(F)(F)F)cc2)c1OCc1ccc(C(C)(C)C)cc1)C(=O)O [Compound 118] | – | – | – | IC50 (recombinant rat PAI-1): 1.92 µM; IC50 (recombinant human PAI-1 [1]): 1.01 µM; inhibition at 3 µM (recombinant human PAI-1 [1]): > 99% |
| CCC(CC)Oc1ccc(N(CCCc2ccccc2)C(=O)C(=O)O)cc1-c1ccc(OC(F)(F)F)cc1 [Compound 230] | – | – | – | IC50 (recombinant rat PAI-1): 1.83 µM; IC50 (recombinant human PAI-1 [1]): 1.32 µM |
| CC(C)(C)c1ccc(Oc2ccc(-c3ccc(OC(F)(F)F)cc3)cc2CCC(=O)O)cc1 [Compound 13] | – | – | – | inhibition at 10 µM (recombinant rat PAI-1; read-out: Inhibition Rate of PAI-1 Activity (%)): > 99% |
| O=C(O)C(=O)N(Cc1ccc(O)cc1)c1ccc(-c2ccc(OC(F)(F)F)cc2)cc1 [Compound 181] | 10 | 11 | 31 | – |
| O=C(O)CCc1cc(-c2ccc(OC(F)(F)F)cc2)ccc1OCc1ccc(C(F)(F)F)cc1 [Compound 22] | – | 13 | 80 | – |
| O=C(O)C(=O)N(Cc1ccc(OC(F)(F)F)cc1)c1ccc(-c2ccc(OC(F)(F)F)cc2)cc1 [Compound 159] | 21 | 45 | 92 | – |
| COc1ccccc1-c1ccc(OCc2ccc(C(C)(C)C)cc2)c(CCC(=O)O)c1 [Compound 56] | 22 | 47 | 91 | – |
| Cc1cc(C)cc(CN(C(=O)C(=O)O)c2ccc(-c3ccc(OC(F)(F)F)cc3)cc2)c1 [Compound 123] | 27 | 62 | – | – |
| O=C(O)C(=O)N(CCCCc1ccccc1)c1ccc(N2CCCCC2)c(-c2ccc(OC(F)(F)F)cc2)c1 [Compound 247] | 93 | 99 | – | – |
| CCCCc1ccc(-c2ccc(N(Cc3ccc(C(C)(C)C)cc3)C(=O)C(=O)O)cc2)cc1 [Compound 164] | 40 | 79 | 96 | – |
| CC(C)(C)c1ccc(-c2ccc(OCc3ccccc3)c(CCC(=O)O)c2)cc1 [Compound 48] | 20 | 50 | 93 | – |
| CC(C)(C)c1ccc(COc2ccc(-c3cccc(C(=O)O)c3)cc2CCC(=O)O)cc1 [Compound 26] | – | 9 | 25 | – |
| Cc1cc(C)cc(COc2ccc(-c3ccc(OC(F)(F)F)cc3)cc2CC(=O)O)c1 [Compound 11] | 41 | 84 | 99 | – |
| O=C(O)C(=O)N(Cc1ccc(F)cc1)c1ccc(-c2ccc(OC(F)(F)F)cc2)cc1 [Compound 155] | 7 | 15 | 38 | – |
| O=C(O)Cc1cc(-c2ccc(OC(F)(F)F)cc2)ccc1OCc1ccccc1 [Compound 1] | 18 | 31 | – | – |
| CC(C)(C)c1ccc(CN(C(=O)C(=O)O)c2ccc(Sc3ccc(OC(F)(F)F)cc3)cc2)cc1 [Compound 621] | 67 | 95 | 91 | – |
| CN(c1ccc(OC(F)(F)F)cc1)c1ccc(OCc2ccc(C(C)(C)C)cc2)c(CCC(=O)O)c1 [Compound 417] | 44 | 79 | 98 | – |
| CC(C)(C)c1ccc(CN(C(=O)C(=O)O)c2ccc(N3CCCCC3)c(-c3ccc(OC(F)(F)F)cc3)c2)cc1 [Compound 217] | 86 | 84 | – | – |

Continued, in another order:

| Inhibition Rate of PAI-1 Activity (%) (recombinant human PAI-1 [2]; Compound Concentration 5 μM) | Inhibition Rate of PAI-1 Activity (%) (recombinant human PAI-1 [2]; Compound Concentration 10 μM) | Inhibition Rate of PAI-1 Activity (%) (recombinant human PAI-1 [2]; Compound Concentration 25 μM) | Compound | further results |
| --- | --- | --- | --- | --- |
| 64 | 87 | 95 | CCC(Oc1ccc(-c2ccc(OC(F)(F)F)cc2)cc1Oc1ccc(C(C)(C)C)cc1)C(=O)O (centres unmarked) [Compound 114] | – |
| 27 | 51 | 73 | CC(C)(C)c1ccc(COc2cc(Oc3ccc(OC(F)(F)F)cc3)ccc2/C=C/C(=O)O)cc1 [Compound 77] | – |
| 83 | 94 | – | CC(C)(C)c1ccc(COc2ccc(-c3ccc(OC(F)(F)F)cc3)cc2NC(=O)C(=O)[O-])cc1.[Na+] [Compound 6] | – |
| 25 | 53 | 91 | CC(C)(C)c1ccc(COc2cc(-c3ccc(OC(F)(F)F)cc3)ccc2/C=C/C(=O)O)cc1 [Compound 75] | – |
| 81 | 98 | 94 | CC(C)Oc1ccc(N(Cc2ccc(C(C)(C)C)cc2)C(=O)C(=O)O)c(-c2ccc(OC(F)(F)F)cc2)c1 [Compound 209] | – |
| 70 | 94 | 98 | CC(C)(C)c1ccc(-c2ccc(N(Cc3ccccc3OC(F)(F)F)C(=O)C(=O)O)cc2)cc1 [Compound 202] | – |
| 33 | 75 | 87 | CC(C)(C)c1ccc(CN(C(=O)C(=O)O)c2ccc(-c3ccc(OC(F)(F)F)cc3)cc2C(F)(F)F)cc1 [Compound 150] | – |
| 17 | 55 | 98 | CC(C)(C)c1ccc(CN(C(=O)C(=O)O)c2ccccc2-c2ccc(OC(F)(F)F)cc2)cc1 [Compound 148] | – |
| 25 | 56 | 94 | CC(C)(C)c1ccc(COc2ccc(-c3ccc(C(C)(C)C)cc3)cc2/C=C/C(=O)O)cc1 [Compound 39] | – |
| 39 | 84 | 90 | CC(C)(C)c1ccc(Oc2cc(-c3ccc(OC(F)(F)F)cc3)ccc2/C=C/C(=O)O)cc1 [Compound 79] | – |
| 25 | 63 | 97 | CC(C)(C)c1ccc(COc2c(Cl)cc(-c3ccc(OC(F)(F)F)cc3)cc2CCC(=O)O)cc1 [Compound 92] | – |
| 61 | – | – | CC(C)(C)c1ccc(COc2cc(-c3ccc(OC(F)(F)F)cc3)cc(O)c2OCC(=O)O)cc1 [Compound 546] | Inhibition Rate of PAI-1 Activity (%) (recombinant human PAI-1 [2]; Compound Concentration 0.5 μM): 4%; Inhibition Rate of PAI-1 Activity (%) (recombinant human PAI-1 [2]; Compound Concentration 1 μM): 14% |
| 75 | 92 | 88 | Cc1ccc(N(Cc2ccc(C(C)(C)C)cc2)C(=O)C(=O)O)cc1Oc1ccc(OC(F)(F)F)cc1 [Compound 187] | – |

Reference: US8633245B2, “PAI-1 inhibitor” (Institute of Medicinal Molecular Design, Inc., priority 2008, dated 2014)
